Consider eight molecules from patent US20160022775A1, “TREATING LYSOSOMAL STORAGE DISEASE” (UNIVERSITY OF ROCHESTER, priority 2013, published 2016).

Data set [1] relates to primary OPCs. The data set can be described thus: Screen for protection of OPC division at sublethal concentrations of psychosine. The settings on record: psychosine concentrations that suppress division without appreciable death. The data set is classed as cell-based, rat. The procedure: Experiments were conducted to identify FDA-approved agents that rescue precursor cells of the CNS from the effects of the lipids thought to be toxic in KD, GD and MLD. To identify therapeutic agents that could be candidates for relatively rapid translation to the clinic, candidate agents were screened (based on cellular and molecular analyses) and unbiased drug screens were conducted using the NINDSII library of 1040 compounds approved by the FDA or in clinical trials. The intent of these screens was to discover previously unknown activities of agents for which pharmacokinetic and toxicological information is already available. The initial screening assays used are for (i) protection against OPC death induced by lethal concentrations of toxic lipids (48 hr exposure) and (ii) protection of OPC division induced by exposure to sublethal concentrations of toxic lipids. […]

In data set [2] the test system is primary OPCs. Put plainly: Screen for protection against OPC death induced by lethal concentrations of psychosine. The data set is classed as cell-based, rat. The following applies: for rescue of cell survival from psychosine: primary OPCs, lethal psychosine exposure. The procedure:
Experiments were conducted to identify FDA-approved agents that rescue precursor cells of the CNS from the effects of the lipids thought to be toxic in KD, GD and MLD. To identify therapeutic agents that could be candidates for relatively rapid translation to the clinic, candidate agents were screened (based on cellular and molecular analyses) and unbiased drug screens were conducted using the NINDSII library of 1040 compounds approved by the FDA or in clinical trials. The intent of these screens was to discover previously unknown activities of agents for which pharmacokinetic and toxicological information is already available. The initial screening assays used are for (i) protection against OPC death induced by lethal concentrations of toxic lipids (48 hr exposure) and (ii) protection of OPC division induced by exposure to sublethal concentrations of toxic lipids.
In this screen, a library of 1040 compounds, either approved for use or in clinical trials, were examined at three different doses for their ability to protect against psychosine-induced cell death. […]

In data set [3] the test system is immortalized cell line characterized as an oligodendrocyte progenitor cell line. The following applies: Zaka et al.; immortalized cell line, 50 μM psychosine; cited from earlier work.
The next data set relates to twitcher −/− mice. Put plainly: In vivo treatment of twitcher -/- mice (model of Krabbe disease). The following applies: for appearance and behavior (films, still images): 24-day-old twi−/− mice. The source says:
In order to determine whether agents identified in in vitro studies are capable of providing an in vivo benefit, the effects of IGF-1 were examined in twitcher −/− mice, an accepted model of Krabbe disease. The twitcher −/− mice harbor a mutation in galactocerebosidase that mimics Krabbe disease. The strategy for in vivo analyses was to determine whether FDA-approved compounds of potential interest improve neurological symptoms and/or extend survival times of twi−/− mice. These studies used techniques employed in studies on toxicity of chemotherapeutic agents for the CNS (See Dietrich et al. J. Biol. 5 (7): e22 (2006); Han et al. CNS J. Biol. 7: e12 (2008)).
In in vivo experiments, IGF-I was administered daily, beginning 10 days after birth, through i.p. injection (100 μg/kg, which is below dosages used in other studies using peripheral administration (See Aberg et al. J. Neurosci. 20: 2896-2903 (2000)). This time point is earlier than the expression of neurological symptoms but is considerably later than that used in attempts to treat these mice by HSC transplants, enzyme replacement therapy or both combined (See Qin et al. Mol. Genet. Metab. 107: 186-196 (2012)). Mice were evaluated at 24 days of age to enable analysis of cell division in vivo. Comparative analysis after 40 days was not possible due to death of the control (saline-treated) twi−/− mice shortly after 40 days of age.
Drugs are delivered once daily by i.p. administration (using 100 μg/kg, which provide benefit (see FIG. 8). All animals are marked and genotyped within the first week after birth to identify +/+, +/− and −/− pups. Outcome measures such as (i) weight gain, motor activity, rotorod analysis, auditory brainstem response and survival are analyzed.
Mice were sacrificed at Day 25 to examine OPC division in vivo (FIG. 8).

The subject of data set [4] is primary oligodendrocyte progenitor cells. Put plainly: Protection of OPCs against toxicity of glucopsychosine and lysosulfatide. The data set is classed as cell-based. The settings on record: OPC survival. The text has this: Since lysosomal storage disorders are so rare, there is a strong disincentive to invest heavily in treatments. Therefore, there is a clear need to identify agents that would be of use in the treatment of multiple lysosomal storage disorders. […] Nonetheless, due to the importance of such a goal, the agents that protect against both cell death and suppression of cell division caused by exposure to psychosine were examined in order to determine their potential utility in protection against the toxic effects of glucopsychosine (elevated in Gaucher's disease) and of lysosulfatide (elevated in metachromatic leukodystrophy). These diseases were chosen as they come from two functionally different disease groups as defined by a cellular assay for lysosomal function wherein BODIPY-LacCer uptake is detected.
The ability of agents that protect against psychosine mediated suppression of cell division and cell survival to also protect against the toxicity of glucopsychosine and lysosulfatide was examined.

For data set [5], the system named is primary OPCs. The data set can be described thus: Survival of OPCs exposed to toxic lipids (calcein AM / propidium iodide, CELIGO). The data set is classed as cell-based. The procedure: Whether toxic lipids have similar effects on the function of oligodendrocyte precursor cells (OPCs, the direct ancestors of myelin-forming oligodendrocytes), due to the common features of myelin breakdown and failure to repair such damage in LSDs, was determined. These experiments all used standard techniques (see Mayer et al. PNAS, 91: 7496-7500 (1994); Ibarrola et al. Dev. Biol. 180: 1-121 (1996); Smith et al. PNAS 97: 10032-10037 (2000); Power et al. Dev. Biol. 245: 362-375 (2002); Dietrich et al. J. Biol. 5: e22 (2006); Li et al. PLoS Biol. 5: e35 (2007)), as adapted to enable rapid automated analysis of microscopy images captured using the CELIGO® imaging system (Brooks Automation, Chelmsford, Mass.). This system enables collection of data using brightfield and three-color fluorescence and provides similar information to be obtained at the single cell level in adherent cell cultures as yielded by flow cytometry. This approach enables quantitatively analysis of 80 different experimental conditions (in triplicate) per hour.
Studies on division and survival of OPCs exposed to 0.1, 0.5, 1, 2, 5 or 10 μM PC, GPS or LS were conducted for 1, 2, 3 or 5 days. These experiments followed standard procedures (see Mayer et al. PNAS, 91: 7496-7500 (1994); Dietrich et al. J. Biol. 5: e22 (2006); and Han et al. J. Biol. 7 (4):12 (2008)) except that cell death was quantified using calcein AM and propidium iodide (PI) labeling of live cultures was used to identify live and dead cells, respectively. […] These dyes effectively overcome the problems with dyes for which cell numbers are inferred from metabolic activity (e.g., MTT, Alamar Blue), and provide quantitative information on cell numbers. Independent confirmation was obtained in all cases by visual examination of cultures. In these, and all other cases, all experiments were repeated at least three times, and all data points were collected in triplicate. All experiments were conducted in conditions of 5% O2, to more closely mimic physiological oxygen concentrations.
The sensitivity of primary OPCs to PC was determined. The sensitivity of the cells to glucopsychosine (GPC) and lysosulfatide (LS) was also examined. […] Thus, OPCs are even more sensitive to PC than oligodendrocytes, which are sensitive at 10 μM psychosine. More critically, they are an order of magnitude more sensitive than indicated by studies described in Zaka et al. (Mol. Cell Neurosci. 30 (3): 398-407 (2005)) on immortalized cell lines.

The subject of data set [6] is human fetal neuroepithelial stem cells (hNSCs). Put plainly: Sensitivity of human CNS precursor cells to toxic lipids. The data set is classed as cell-based.
Setting [7] is: twi−/− mice, 24 days of age, 100 μg/kg i.p. daily.

Entries after “also recorded” stand apart in the source; their conditions may differ.

On to `C=C[C@@]1(C)CC(=O)[C@]2(O)[C@@]3(C)[C@@H](O)CCC(C)(C)[C@@H]3[C@H](O)[C@H](OC(C)=O)[C@@]2(C)O1` [colforsin], for which the “rescue of cell division from psychosine” value with primary OPCs [1] was “inhibit cell death and reduce suppression of cell division; also recorded: rescued both cell survival and cell division”. In the data set on primary OPCs [2], the “rescue of cell survival from psychosine” value is “inhibit cell death and reduce suppression of cell division; also recorded: rescued both cell survival and cell division”.
As for “IGF-1: insulin-like growth factor-I, polypeptide”, in data set [3], the “dose giving marked protection from psychosine-induced cell death” value is “one” and the “exposure level giving slight (marginal) reduction of psychosine-induced cell death” value was 100 ng/mL. Also, the “appearance and behavior (films, still images)” value with twitcher −/− mice (100 μg/kg i.p. daily) is “normal body extension, sleek fur and evidence of extensive locomotor behavior”. The “appearance and behavior (films, still images)” value in the data set on twitcher −/− mice (100 μg/kg i.p. daily, listed as IGF-I) is “essentially normal in appearance”. Also, in the data set with twitcher −/− mice (setting [7]), the “locomotor activity (velocity of movement, cm/sec)” value is recorded as “statistically normal locomotor activity” and the weight gain entry is reported as “normal weight gain”. For the same molecule, in the data set with twitcher −/− mice (twi−/− mice, 24 days of age, 100 μg/kg i.p. daily, listed as IGF-I), the “locomotor activity (velocity of movement, cm/sec)” value is “restores movement to normal levels”. The “more dividing OPCs than in saline-treated mice” value with twitcher −/− mice (twi−/− mice, corpus callosum, Day 25, 100 μg/kg i.p. daily from 10 days after birth) is recorded as about 45%. In addition, in the data set on primary OPCs [1], the “rescue of cell division from psychosine” value is “ability to protect both cell division and cell survival; also recorded: rescued both division and survival; also recorded: protects against psychosine mediated suppression of cell division and cell survival; also recorded: inhibit cell death and reduce suppression of cell division; also recorded: Rescue of cell division is also achieved at physiologically relevant dosages”. The “protection against toxicity of glucopsychosine” value in data set [4] was “protects against the toxicity of glucopsychosine and lysosulfatide; also recorded: similarly effective against lysosulfatide and glucopsychosine as it was against psychosine”. In data set [4] (survival data at 5 days), the “protection against toxicity of lysosulfatide” value was “protects against the toxicity of glucopsychosine and lysosulfatide; also recorded: similarly effective against lysosulfatide and glucopsychosine as it was against psychosine”. Also, in the data set with primary OPCs [2] (primary OPCs exposed to psychosine), the “dosage at which beneficial effects on survival are seen” value amounted to 10 ng/mL. Moreover, in the data set with primary OPCs [2], the “rescue of cell survival from psychosine” value is “ability to protect both cell division and cell survival; also recorded: rescued both division and survival; also recorded: protects against psychosine mediated suppression of cell division and cell survival; also recorded: inhibit cell death and reduce suppression of cell division”.
Turning to `CCCCCCCCCCCCC/C=C/[C@@H](O)C(N)CO[C@@H]1O[C@H](CO)[C@@H](O)[C@H](O)[C@@H]1O` (some centres unmarked) [glucopsychosine], in the data set with primary OPCs [5], the “exposure level as low as which toxic for OPCs” value is 3.304; the “exposure range toxic for primary OPCs and other primary CNS cells” value is given as “low micromolar range”. In addition, the “vulnerability of hNSCs compared with rat OPCs” value in data set [6] was “at least as vulnerable”.
Regarding VEGF, the “rescue of cell division from psychosine” value with primary OPCs [1] is “ability to protect both cell division and cell survival; also recorded: inhibit cell death and reduce suppression of cell division”. The “rescue of cell survival from psychosine” value with primary OPCs [2] is “ability to protect both cell division and cell survival; also recorded: inhibit cell death and reduce suppression of cell division”.
As for `CC(C)(C)CC(C)(C)c1ccc(O)c(Cc2ccc(Cl)cc2Cl)c1` [clofoctol], the “rescue of cell division from psychosine” value with primary OPCs [1] was “inhibit cell death and reduce suppression of cell division; also recorded: rescued both cell survival and cell division”. Also, in the data set on primary OPCs [2], the “rescue of cell survival from psychosine” value is “inhibit cell death and reduce suppression of cell division; also recorded: rescued both cell survival and cell division”.
For `CC(C)(C)NCC(O)c1ccccc1Cl` (centres unmarked) [tulobuterol], in the data set with primary OPCs [1], the “rescue of cell division from psychosine” value is “inhibit cell death and reduce suppression of cell division; also recorded: rescued both cell survival and cell division”. Further, in the data set with primary OPCs [2], the “rescue of cell survival from psychosine” value is “inhibit cell death and reduce suppression of cell division; also recorded: rescued both cell survival and cell division”.
Take `COc1ccc(C(Cl)=C(c2ccc(OC)cc2)c2ccc(OC)cc2)cc1` [chlorotrianisene]: the “rescue of cell division from psychosine” value is “inhibit cell death and reduce suppression of cell division” in the data set with primary OPCs [1]; “rescued both cell survival and cell division” with primary OPCs [1] (listed as Chlorotrianisene). The “rescue of cell survival from psychosine” value with primary OPCs [2] is “inhibit cell death and reduce suppression of cell division; also recorded: rescued both cell survival and cell division”.
For the molecule `CCCCCCCCCCCCC/C=C/[C@@H](O)[C@@H](N)CO[C@@H]1O[C@H](CO)[C@H](O)[C@H](OS(=O)(=O)O)[C@H]1O` [lysosulfatide], in the data set on primary OPCs [5], the “exposure level as low as which toxic for OPCs” value is recorded as 3.304; the “exposure range toxic for primary OPCs and other primary CNS cells” value is reported as “low micromolar range”.
